Source: patent US11261232B2, “TNFRSF14 / HVEM proteins and methods of use thereof” (MEMORIAL SLOAN KETTERING CANCER CENTER, priority 2015, dated 2022)

Tests used:
primary human FL B cells = test: BCR signaling (pSyk, pERK) in anti-IgG-stimulated primary FL B cells; assay type: cell-based; conditions: solHVEM 10 μg/ml
Method: FIG. 4A-E. HVEM blocks BCR signaling in a cell autonomous and BTLA dependent manner. FIG. 4A and FIG. 4B, Quantification of FACS analysis of phosphorylated BTK (pBTK) expression in BCL1 cells after stimulation with anti-IgM in the presence of solHVEM (10 μg/m1) or Ibrutinib (10 nM) without (FIG. 4A) or with (FIG. 4B) the knockdown of BTLA (shBTLA); FIG. 4C, FACS analysis of BTLA expression on purified primary human FL B cells distinguishes samples with high (BTLA^hi) and low (BTLAlo) surface BTLA expression); FIG. 4D, FACS analysis for the indicated signaling molecules in human primary FL B cells that were BTLA^hi or BTLAlo and stimulated with anti-human IgG (3 min; 10 μg/ml and H2O2 1 mM) in the presence or absence of the soluble HVEM ectodomain (solHVEM; 10 μg/ml) (right); FIG. 4E, Percentage of pSyk inhibition was calculated by comparing the ratio of MFI of pSyk+/−solHVEM and was correlated to BTLA ratio of MFI (r=0.697, p=0.03, Purified FL B cells, n=10, grade 1 and grade 2).
FIG. 11. Effect of HVEM on murine and human FL B cells. […]
Loss of HVEM and BTLA leads to BCR activation in murine lymphomas (FIGS. 2G and 3F). […] Briefly, the BCR signaling pathway in BCL1 mouse lymphoma cells was stimulated with IgM in the presence or absence of solHVEM (10 μg/ml) or the pharmacological BTK inhibitor ibrutinib (10 nM) and BTK phosphorylation was measured as an indicator of BCR pathway activation by flow cytometry. […] BTLA expression was analyzed across ten samples of purified human FL B cells by FACS, and the samples were divided into BTLA″ and BTLA^10 groups (FIG. 4C). […]
Purified IgGpos FL B cells were stimulated using FITC-conjugated goat anti-human IgG (Invitrogen, […]) in the presence of H2O2 (1 mM) with or without solHVEM (10 μg/mL). […] Phosphoprotein activation was quantified using Alexa 647-conjugated anti-pSyk (clone 17A/p-ZAP70), anti-pBLNK (clone j117-1278), or anti-pERK1/2 (clone 20A, BD Biosciences) and analyzed on B cells expressing clonal heavy and light chain gated using the anti-IgG FITC Ab and a PE-conjugated anti-kappa Ab (Southern Biotech).

[1] = tested on: cell lines that expressed high levels of BTLA; test: Immunoblot of ERK phosphorylation in treated cell lines; assay type: cell-based; conditions: 5 ug/ml; cell lines with high BTLA
Method: FIG. 19. In vitro effect of sTNFRSF14. Immunoblots of cell lines that were treated with 5 ug/ml of sTNFRSF14. Blots were probed as indicated.
Immunoblots were performed using whole cell lysates or supernatants as previously described (Wendel et al., 2004). In brief, 30 μg protein/sample was resolved on SDS-PAGE gels and transferred to Immobilon-P membranes (Millipore). Antibodies were against, pSyk (Cell Signaling Technologies #2712), Syk (Cell Signaling Technologies #2710), pBTK (Cell Signaling Technologies #5082), BTK (Cell Signaling Technologies #3533) pERK (Cell Signaling Technologies #9102), ERK (Cell Signaling Technologies #4370) and Tubulin (Sigma-Aldrich). Enhanced chemiluminescence was used for detection (ECL; GE Healthcare).

[2] = tested on: myc-Bc12 lymphoma cell line; test: Cell viability by CellTiterGlo; assay type: cell-based, mouse; conditions: 5 ug/ml; 24 hours
Method: FIG. 18. sTNFRSF14 decreases cell viability in vitro. Cells of the myc-Bc12 lymphoma cell line were plated at a density of 1×10^5 cells/ml and they were treated with sTNFRSF14 (5 ug/ml) or vehicle. After 24 hours of treatment cell viability was assessed using CellTiterGlo reagent.

| Molecule | ERK inhibition in BTLAhi cells (primary human FL B cells; BTLAhi primary FL B cells) | SYK inhibition in BTLAhi cells (primary human FL B cells; BTLAhi primary FL B cells) | SYK and ERK inhibition in BTLAlo cells (primary human FL B cells; BTLAlo primary FL B cells) | ERK phosphorylation levels [1] | cell viability [2] |
| --- | --- | --- | --- | --- | --- |
| solHVEM: Leu39-Val202 soluble HVEM ectodomain polypeptide of SEQ ID NO. 8 | inhibition | inhibition | little effect | – | – |
| sTNFRSF14: Pro37-Val202 soluble HVEM ectodomain polypeptide of SEQ ID NO. 6 (protein, listed as Homo sapiens) PALPSCKEDEYPVGSECCPKCSPGYRVKEACGELTGTVCEPCPPGTYIAHLNGLSKCLQCQMCDPAMGLRASRNCSRTENAVCGCSPGHFCIVQDGDHCAACRAYATSSPGQRVQKGGTESQDTLCQNCPPGTFSPNGTLEECQHQTKCSWLVTKAGAGTSSSHWV | – | – | – | clearly reduced | modest decrease |
